Source: patent US12466834B2, “Imidazodiazepinediones and methods of use thereof” (GFB (ABC), LLC, priority 2018, dated 2025)

Legend:
human TRPC5 [1] = target: T1, human TRPC5 (Homo sapiens, UniProt Q9UL62); assay: Automated patch clamp assay (QPatch), antagonist mode; type: cell-based; conditions: HEK-TREx hTRPC5 cells; channel activated with Rosiglitazone 30 μM; normalised to ML-204 block; read-out: Qpatch Potency Range
T1 construct: expressed in transfected cells
T1 sequence (Q9UL62 1-973): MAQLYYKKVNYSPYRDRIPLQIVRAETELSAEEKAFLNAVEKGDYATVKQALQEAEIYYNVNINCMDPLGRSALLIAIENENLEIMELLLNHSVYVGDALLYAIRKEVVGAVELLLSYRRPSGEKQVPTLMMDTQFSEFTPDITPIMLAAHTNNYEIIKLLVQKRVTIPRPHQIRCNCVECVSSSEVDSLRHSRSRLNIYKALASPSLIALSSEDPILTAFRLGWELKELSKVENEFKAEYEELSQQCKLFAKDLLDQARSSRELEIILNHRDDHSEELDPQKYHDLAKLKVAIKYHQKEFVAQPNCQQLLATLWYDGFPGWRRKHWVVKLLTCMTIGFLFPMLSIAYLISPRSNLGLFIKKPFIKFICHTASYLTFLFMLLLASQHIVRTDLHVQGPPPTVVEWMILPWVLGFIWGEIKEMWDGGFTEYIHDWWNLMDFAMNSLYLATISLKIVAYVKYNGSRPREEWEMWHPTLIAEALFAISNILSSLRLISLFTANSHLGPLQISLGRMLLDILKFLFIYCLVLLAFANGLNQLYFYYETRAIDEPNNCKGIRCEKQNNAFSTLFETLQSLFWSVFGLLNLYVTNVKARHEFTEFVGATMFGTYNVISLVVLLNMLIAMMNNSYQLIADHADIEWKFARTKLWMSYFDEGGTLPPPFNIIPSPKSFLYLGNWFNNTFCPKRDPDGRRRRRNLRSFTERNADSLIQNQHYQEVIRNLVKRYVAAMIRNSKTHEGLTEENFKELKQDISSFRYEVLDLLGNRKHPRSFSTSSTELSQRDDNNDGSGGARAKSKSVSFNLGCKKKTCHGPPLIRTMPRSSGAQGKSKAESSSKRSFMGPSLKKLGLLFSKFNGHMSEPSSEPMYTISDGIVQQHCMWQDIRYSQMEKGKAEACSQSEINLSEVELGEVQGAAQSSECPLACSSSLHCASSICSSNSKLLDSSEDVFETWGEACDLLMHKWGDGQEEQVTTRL
Protocol: (§1) ICLN-1633 cells (HEK-TREx hTRPC5) expressing TRPC5 were generated as follows. Commercially available HekTrex-293 cells were seeded at 0.7×10^6 cells/well in a 1×6-well plate 24 hrs prior to transfection using 2 mL cell growth media containing no antibiotics (1× DMEM/high glucose (Hyclone #SH30022.02); 10% fetal bovine serum (Sigma) 2 mM sodium pyruvate, 10 mM HEPES). The human TRPC5 coding sequence (NM_012471 with a silent T478C mutation) was cloned into pcDNA5/TO (Invitrogen; Cat No. V103320) using hygromycin as the resistance gene and the plasmid (SEQ ID NO:1) propagated using T-Rex-293 cells (Invitrogen; Cat No. R71007) following manufacturer's directions. On day 2, 2 μg of plasmid DNA plus 6 μl of Xtreme-GENE HP reagent in Optimem (200 μl total volume) was prepared and incubated for 15 min at room temperature. This plasmid solution was then gently overlayed dropwise onto each well and the plate was gently swirled to mix complex with the media for approximately 30 seconds. Transfected cells were incubated at 37° C. in a 10% CO2 incubator for 24 hrs. The transfected cells were harvested and transferred into 2×150 mm dishes containing cell growth media with no antibiotics at 37° C.
The next day selection was initiated to generate a stable pool by adding cell growth media containing 150 μg/mL Hygromycin and 5 μg/mL Blasticidin and cells were allowed to grow. Media with the selection agent was changed every 1-2 days as needed to remove dead cells. After 7 days, the hygromycin concentration was reduced to 75 μg/mL and cells growth was allowed to continue.
Single clones were selected as follows. The stable pool was diluted to 10 cells/mL and seeded (100 μl/well) into 24×96 well plates (˜1 cell/well) and allowed to grow for 7 days in cell growth media. Fresh media (100 μl) was added and the cells allowed to grow for another 1-2 weeks and then stored frozen or used immediately.
The automated electrophysiological assay was carried out at room temperature. On the day of the experiment, TRPC5 cells were cultured according to our Standard Operating Procedure. Briefly, cells were harvested using TrypLE™ Express, re-suspended in serum free medium, added to the automated platform and used within 0.5-3 hours. Internal and external physiological solutions were freshly prepared prior to the assay. The external solution contained: 145 mM NaCl, 4 mM KCl, 2 mM CaCl2, 1 mM MgCl2, 10 mM HEPES, 10 mM glucose, pH 7.4 with NaOH and 310 mOsm/L. The internal solution contained 120 mM L-aspartic acid, 120 mM CsOH·H2O, 20 mM CsCl, 2 mM MgCl2, 8.8 mM CaCl2, 10 mM EGTA, 10 mM HEPES and 2 mM Na2ATP; pH 7.2 with CsOH and 330 mOsm/L. The free internal Ca^2+ concentration was buffered to 1 μM, according to the WCabuf software. The automated electrophysiological platform QPatch 16 from Sophion (Denmark) was used to carry out the compounds profiling. The series resistance and quality of seals were continuously monitored during the experiments. Data were analyzed using Sophion QPatch assay software 5.6 (Odense). Data were normalized using the maximum activation obtained during the pre-compound agonist application as the top value (1.0) and maximum inhibition induced by ML-204 as the bottom value (0.0). IC50 values were calculated using a least squares regression algorithm (Hill equation).
To monitor the ion currents, a voltage ramp from −100 mV to +100 mV, over 300 ms, was applied every 10 seconds, from a holding potential of −60 mV. Antagonist-mode: After recording for a minimum of 60 seconds control period, the EC60 concentration of the TRPC5 agonist, Rosiglitazone (30 μM), was applied to activate the channel. After reaching steady-state, co-application of increasing concentrations of test compound were applied followed by two applications of Rosiglitazone EC60 and a saturating concentration of the specific blocker ML-204 (100 μM).

human TRPC5 [2] = target: T1, human TRPC5; assay: FLIPR calcium assay, inhibition of riluzole-activated TRPC5 calcium response; type: cell-based; conditions: ICLN-1633 cells; riluzole 30 μM stimulation; Fluo-4 calcium response; read-out: Inhibitor Potency Range (FLIPR)
Protocol: as §1
Compounds were made up to, or supplied as a 10 mM stock solution generally using DMSO as the vehicle. 10-point dose response curves were generated using the Echo-550 acoustic dispenser. Compound source plates were made by serially diluting compound stocks to create 10 mM, 1 mM, and 0.1 mM solutions in DMSO into Echo certified LDV plates. The Echo then serially spotted 100% DMSO stock solutions into source dose response plates to generate a 4-fold dilution scheme. 100% DMSO was added to the spotted dose response plates to bring the final volume to 5 μl. 300 nl of the dose response stock plate was then spotted into pre-incubation and stimulation assay plates. 50 μl of pre-incubation buffer and 100 μl of stimulation buffer was then added to the plates resulting in a final assay test concentration range of 30 μM to 0.0001 μM with a final DMSO concentration of 0.3%.
Human ICLN-1633 cells expressing were plated onto 384 well, black poly-D-lysine-coated microplates and maintained in TRPC5 growth media the day prior to use for experiments. TRPC5 expression was induced by the application of 1 μg/mL tetracycline at the time of plating. Media was removed from the plates and 10 μl of 4 μM of Fluo-4 AM (mixed with equal volume of Pluronic F-127) in Earls's Balanced Salt Solution (EBSS) was added to the cells. Cells were incubated at room temperature, protected from light, for 60-90 minutes. After the incubation period, the dye was removed and replaced with 10 μl of EBSS. Cell, pre-incubation and stimulation plates were loaded onto the FLIPR-II and the assay was initiated. The FLIPR measured a 10 second baseline and then added 10 μl of 2× compounds (or controls). Changes in fluorescence were monitored for an additional 5 minutes. After the 5 minute pre-incubation, 20 μl of 2× riluzole (with 1× compound or controls) was added to the cell plate. The final riluzole stimulation concentration in the assay was 30 μM. After the riluzole addition, changes in fluorescence were monitored for an additional 5 minutes. Reduction in the riluzole-activated calcium response relative to control wells was reported as inhibition. A compound-mediated increase in the riluzole response relative to control riluzole response (no test agent present) with no enhancement of calcium entry during preincubation phase was reported as an agonist response.
Compound inhibition of TRPC5 calcium response was determined as follows. After the riluzole addition, fluorescence was monitored for a 5-minute period. For inhibition, the maximum relative fluorescence response (minus the control response of 1 μM of an internal control compound known to maximally block TRPC5 calcium response, the “REF INHIB” in the formula below) was captured and exported from the FLIPR. […]

Compound | IC50 (human TRPC5 [1]) | IC50 (human TRPC5 [2])
C[C@H](c1ccc(Cl)cc1)n1c(Oc2cccc(F)c2)nc2c1C(=O)N(CCCO)CC(=O)N2C (single isomer, unassigned) [Compound 6] | > 30000 nM | > 10000 nM
C[C@@H](c1ccc(Cl)cc1)n1c(Oc2cccc(F)c2)nc2c1C(=O)N(CCCO)CC(=O)N2C (single isomer, unassigned) [Compound 7] | 1000 to 30000 nM | > 10000 nM
CN1C(=O)CN([C@@H]2CC[C@@H](O)C2)C(=O)c2c1nc(Oc1cccc(OC(F)(F)F)c1)n2Cc1ccc(Cl)cc1 (single isomer, unassigned) [Compound 15] |  | 1 to 1000 nM
CN1C(=O)CN([C@H]2CC[C@H](O)C2)C(=O)c2c1nc(Oc1cccc(OC(F)(F)F)c1)n2Cc1ccc(Cl)cc1 (single isomer, unassigned) [Compound 16] |  | 1000 to 10000 nM
CN1C(=O)[C@H](CCO)N(C)C(=O)c2c1nc(Oc1cccc(OC(F)(F)F)c1)n2Cc1ccc(Cl)cc1 (single isomer, unassigned) [Compound 17] | > 30000 nM | 
CN1C(=O)[C@@H](CCO)N(C)C(=O)c2c1nc(Oc1cccc(OC(F)(F)F)c1)n2Cc1ccc(Cl)cc1 (single isomer, unassigned) [Compound 18] | 1 to 1000 nM | > 10000 nM
C[C@H]1C(=O)N(C)c2nc(Oc3cccc(F)c3)n(Cc3ccc(Cl)cc3)c2C(=O)N1CCCO (single isomer, unassigned) [Compound 20] | 1000 to 30000 nM | 1 to 1000 nM
O=C1c2c(nc(Oc3cccc(OC(F)(F)F)c3)n2Cc2ccc(Cl)cc2)N2CCC[C@@H]2CN1CCCO (single isomer, unassigned) [Compound 34] |  | 1 to 1000 nM
O=C1c2c(nc(Oc3cccc(OC(F)(F)F)c3)n2Cc2ccc(Cl)cc2)N2CCC[C@H]2CN1CCCO (single isomer, unassigned) [Compound 35] |  | 1000 to 10000 nM
CN1CCN(CCCO)C(=O)c2c1nc(Oc1cccc(OC(F)(F)F)c1)n2Cc1ccc(Cl)cc1 [Compound 1, 1-[(4-chlorophenyl)methyl]-7-(3-hydroxypropyl)-4-methyl-2-[3-(trifluoromethoxy)phenoxy]-1H,4H,5H,6H,7H,8H-imidazo[4,5-e][1,4]diazepin-8-one] | 1000 to 30000 nM | 
CCCCn1c(Oc2cccc(OC(F)(F)F)c2)nc2c1C(=O)N(CCCO)CC(=O)N2C [Compound 3] |  | 1000 to 10000 nM
CN1C(=O)CN(CCCO)C(=O)c2c1nc(Oc1cccc(F)c1)n2Cc1ccc(Cl)cc1 [Compound 4] |  | 1000 to 10000 nM
COCCCN1CC(=O)N(C)c2nc(Oc3cccc(OC(F)(F)F)c3)n(Cc3ccc(Cl)cc3)c2C1=O [Compound 8, 1-[(4-chlorophenyl)methyl]-7-(3-methoxypropyl)-4-methyl-2-[3-(trifluoromethoxy)phenoxy]-1H,4H,5H,6H,7H,8H-imidazo[4,5-e][1,4]diazepine-5,8-dione] |  | 1000 to 10000 nM
CN1C(=O)CN(CC(O)CO)C(=O)c2c1nc(Oc1cccc(OC(F)(F)F)c1)n2Cc1ccc(Cl)cc1 (centres unmarked) [Compound 9, 1-[(4-chlorophenyl)methyl]-7-(2,3-dihydroxypropyl)-4-methyl-2-[3-(trifluoromethoxy)phenoxy]-1H,4H,5H,6H,7H,8H-imidazo[4,5-e][1,4]diazepine-5,8-dione] | 1000 to 30000 nM | 
CN1C(=O)CN(CCO)C(=O)c2c1nc(Oc1cccc(OC(F)(F)F)c1)n2Cc1ccc(Cl)cc1 [Compound 10, 1-[(4-chlorophenyl)methyl]-7-(2-hydroxyethyl)-4-methyl-2-[3-(trifluoromethoxy)phenoxy]-1H,4H,5H,6H,7H,8H-imidazo[4,5-e][1,4]diazepine-5,8-dione] |  | 1000 to 10000 nM
CN1C(=O)CN([C@H]2C[C@H](O)C2)C(=O)c2c1nc(Oc1cccc(OC(F)(F)F)c1)n2Cc1ccc(Cl)cc1 [Compound 13] | 1000 to 30000 nM | 
O=C1c2c(nc(Oc3cccc(F)c3)n2Cc2ccc(Cl)cc2)N2CCC[C@H]2C(=O)N1CCCO [Compound 26] |  | 1 to 1000 nM
CCCCn1c(Oc2cccc(Cl)c2)nc2c1C(=O)N(CCCO)C(=O)[C@@H]1CCCN21 [Compound 32] |  | 1 to 1000 nM
O=C1c2c(nc(Oc3cccc(Cl)c3)n2Cc2ccc(Cl)cc2)N2CCC[C@H]2C(=O)N1CCCO [Compound 33] |  | 1 to 1000 nM
